Holding throughout (format): cell-based, murine
The test system of experiment [1] is bone marrow derived DCs (BMDCs). Description: LPA receptor gene expression in BMDCs by RNA-seq. More on the design: Lpar1 expression level / Lpar3 expression level / Lpar4 expression level / Lpar5 expression level / Lpar6 expression level: unit not given here. To be noted: RNA-seq relative expression. The procedure:
FIG. 1 illustrates relative expression levels of genes encoding lysophosphatidic acid (LPA) receptors in the indicated murine dendritic cell (DC) populations, as determined by RNA-seq. Ovarian cancer DCs were sorted from tumor locations of mice bearing ID8-based metastatic ovarian carcinoma for 24 days.
Relative expression levels of genes encoding LPA receptors in the indicated dendritic cell (DC) populations was determined by RNA-seq.
FIG. 1 illustrates that murine bone marrow derived DCs (BMDCs) as well as DCs infiltrating ovarian tumors expressed significant levels of genes encoding various LPA receptors, particularly Lpar6 (see also Table 3).

For experiment [2], the system named is bone marrow-derived dendritic cells (BMDCs). Description: Bodipy 493/503 staining of intracellular lipids in BMDCs by FACS. The settings on record: 100 μM LPA, 6 hours. The source says: Bodipy 493/503 staining was used to detect intracellular lipids by FACS. ***P<0.0005. FIG. 2B graphically illustrates quantities of Bodipy-stained intracellular lipids in LPA-treated cells compared to untreated cells.

Experiment [3] relates to dendritic cells. Description: Genome-wide transcriptional profiling of dendritic cells by RNA-seq. The settings on record: 100 μM LPA. The procedure:
RNA was obtained from LPA-treated bone marrow-derived DCs (BMDCs) and RNA sequencing was performed. The RNA-sequencing data and Ingenuity Pathway Analyses (IPA) was performed on the RNA from LPA-treated bone marrow-derived DCs (BMDCs).

The subject of experiment [4] is BMDCs. Description: RT-qPCR of type-I IFN target genes in BMDCs. The procedure: FIG. 11A-11H illustrate that LPA downregulates type-I IFN target genes in dendritic cells. BMDCs were left untreated or incubated with LPA (100 uM) for 2 hours and 6 hours, and gene expression was determined by RT-qPCR. **P<0.001, ***P<0.0005, ****P<0.0001. FIG. 11A illustrates downregulation of Ddx58 mRNA (encoding DExD/H-box helicase 58) relative to Actb expression at 2 hours and 6 hours after LPA treatment of BMDCs. FIG. 11B illustrates downregulation of Ifit1 mRNA (encoding interferon-induced protein with tetratricopeptide repeats 1) relative to Actb expression at 2 hours and 6 hours after LPA treatment of BMDCs. FIG. 11C illustrates downregulation of Ifit2 mRNA (encoding interferon-induced protein with tetratricopeptide repeats 2) relative to Actb expression at 2 hours and 6 hours after LPA treatment of BMDCs. FIG. 11D illustrates downregulation of Isg15 mRNA (interferon-stimulated gene 15) relative to Actb expression at 2 hours and 6 hours after LPA treatment of BMDCs. FIG. 11E illustrates downregulation of Ciita mRNA (encoding a Class II Major Histocompatibility Complex Transactivator) relative to Actb expression at 2 hours and 6 hours after LPA treatment of BMDCs. FIG. 11F illustrates downregulation of Oas1a mRNA (encoding 2′-5′ oligoadenylate synthetase 1A) relative to Actb expression at 2 hours and 6 hours after LPA treatment of BMDCs. […]
Background: Real-time PCR tracks product formation cycle by cycle.

Experiment [5] has as its system BMDCs, sDCs and pDCs. Description: IFN-β ELISA in DCs stimulated with TLR agonists. The settings on record: Poly (I:C), LPS or CpG ODN1585, LPA 10 uM and 100 uM. The procedure:
FIG. 12A-12D illustrate that LPA represses IFN-β production by diverse DC types. Splenic dendritic cells (sDCs), bone marrow dendritic cells (BMDCs) and plasmacytoid dendritic cells (pDCs) were stimulated with Poly (I:C) (a high molecular weight, synthetic analog of double-stranded RNA (dsRNA) that is a potent inducer of interferon), LPS (lipopolysaccharide) or CpG ODN1585 (a synthetic immunostimulatory oligonucleotide) in the presence or absence of LPA (10 uM and 100 uM). IFN-β protein expression levels were determined by ELISA. **P<0.001, ***P<0.0005, ****P<0.0001. FIG. 12A illustrates IFN-β protein expression in splenic DCs (sDCs) after treatment with LPA and/or Poly (I:C). FIG. 12B illustrates IFN-β protein expression in bone marrow dendritic cells (BMDCs) after treatment with LPA and/or Poly (I:C). FIG. 12C illustrates IFN-β protein expression in bone marrow dendritic cells (BMDCs) after treatment with LPS and/or LPA. FIG. 12D illustrates IFN-β protein expression in plasmacytoid DCs (pDCs) after treatment with ODN1585 and/or LPA.
These effects also occurred in diverse DC types such as BMDCs, splenic DCs (sDCs) and plasmacytoid DCs (pDCs) during stimulation through Toll-like Receptors (TLRs) or upon exposure to cancer cells treated with inhibitors of poly ADP-ribose polymerase (PARP) that induce DNA damage. […] The structure of Talazoparib is shown below.
Background: An ELISA detects its analyte on a solid surface through an enzyme-linked reagent.

Regarding lysophosphatidic acid [LPA], in experiment [1] (BMDC + LPA (2 hr.)), the Lpar1 expression level turned out to be 8.540, the Lpar2 expression level stood at 0.303, the Lpar3 expression level was 0.300 and the Lpar4 expression level was determined as 0.040. Besides, in experiment [1] (BMDC + LPA (2 hr.)), the Lpar5 expression level turned out to be 1.517 and the Lpar6 expression level was 62.313. Further, in experiment [1] (BMDC + LPA (6 hr.)), the Lpar1 expression level came to 2.240, the Lpar2 expression level was determined as 0.353, the Lpar3 expression level is reported as 0.253 and the Lpar4 expression level worked out at 0.007. Further, in experiment [1] (BMDC + LPA (6 hr.)), the Lpar5 expression level is reported as 2.837 and the Lpar6 expression level is 72.007. Moreover, in experiment [2], the “intracellular lipid accumulation in dendritic cells” value is given as “induces intracellular lipid accumulation”. Moreover, the “number of genes demonstrating severe deregulation” value in experiment [3] is reported as ~4,000 genes. Moreover, the “type-I IFN target gene expression (Ddx58, Ifit1, Ifit2, Isg15, Ciita, Oas1a, Oas1g, Oas2)” value in experiment [4] (BMDCs, LPA 100 uM, 2 hours and 6 hours) is on record as “decreased”. Further, in experiment [4] (coculture), the “expression of type-I IFN-related genes in BMDCs exposed to Talazoparib-treated ovarian cancer cells” value was “prevented expression”. Besides, the “IFN-β protein levels upon TLR agonist stimulation” value in experiment [5] is recorded as “decreased levels”.
